Data: US9314446B2, “Sustained releasing pharmaceutical composition” (priority 2013, dated 2016)

Assay: In-vitro release of diclofenac (dialysis bag, PBS, absorbance 300 nm)
Format: physicochemical
Conditions: 1 mg/ml, PBS 37° C.
Procedure: In-vitro experiment on agent release of hydrogel is designed to simulate its in-vivo effect. The 500 μg/ml latanoprost-loaded solution were added to the transwell (100 μl/well) mounted on 24-well plates, and 1.5 ml PBS was added in each well and then incubated at 37° C. The 1.5 ml PBS was collected and another 1.5 ml PBS was then replenished at each time (Days 1, 7, 14 and 28). The amount of latanoprost was analyzed by a LC-MS/MS system equipped with an electrospray ionization source. The LC-MS/MS consisted of a Sciex API 3000 tandem mass spectrometer and Agilent 1100 series LC system. Separation of latanoprost was achieved by using a Phenomenex Luna C18 column (particle size 5 um, 50 mm×4.6 mm i.d.). The mobile phase consisted of latanoprost was (A) 0.1% (v/v) formic acid and (B) acetonitrile containing 0.1% formic acid (A:B=7:3, v/v) and delivered at 0.3 ml per minute. The mass spectrometer was operated in positive mode which used multiple reaction monitoring. The precursor to produce ion transition of m/z 374.2→195.2 was monitored. In another experiment, the dialysis bags with molecular weight cut-off of 1 kD were used to retain the diclofenac-loaded hydrogel and allow the released diclofenac to permeate into the release medium (PBS). Briefly, 800 μl diclofenac-loaded hydrogel (1 mg/ml) or diclofenac only (1 mg/ml) was added to a dialysis bag. The sample-loaded dialysis bag was immersed in 30 ml of PBS at 100 rpm and 37° C. At fixed time intervals, the release medium was collected and replaced with an equal amount of PBS. According to the absorption curve of diclofenac, the diclofenac content of the each sample was analyzed by Tecan's Infinite® M 1000 spectrophotometer at the wavelength of 300 nm. […] The percentage of cumulative release at 1, 7, 14 and 28 days were 1.34±0.33, 26.80±5.40, 45.03±2.55 and 67.72±4.25%, respectively. Additives in hydrogel affect its composition, structure and may also change its drug releasing characteristics. […] The percentage of cumulative release of 1 mg/ml diclofenac only group at 5, 18, 24, 48, 75 and 140 hours was 106.08±10.48, 99.34±6.57, 106.62±13.76, 102.28±7.40, 105.75±5.76 and 112.14±7.05%.

Structure (SMILES): O=C(O)Cc1ccccc1Nc1c(Cl)cccc1Cl [diclofenac]
- cumulative release of diclofenac (5 hours): 106.08±10.48%
- cumulative release of diclofenac (18 hours): 99.34±6.57%
- cumulative release of diclofenac (24 hours): 106.62±13.76%
- cumulative release of diclofenac (48 hours): 102.28±7.40%
- cumulative release of diclofenac (75 hours): 105.75±5.76%
- cumulative release of diclofenac (140 hours): 112.14±7.05%
